According to US9675595B2, “Synergistic combinations of PI3K- and MEK-inhibitors” (Novartis AG, priority 2011, dated 2017):

System: Melanoma cell lines
Assay: Cell line testing, dose matrix, Example 3, melanoma panel
Type: cell-based
Settings: melanoma lines with activating NRAS mutation and BRAF mutants
Description: The combination of PI3K inhibitor COMPOUND A and MEK inhibitor COMPOUND B, as defined above, was tested across 38 cell lines from three tissue types (7 pancreas, 10 lung, and 21 melanoma). Each combination was tested in a partially-filled “dose matrix” constructed as follows: Each single drug was dispensed into growth media at a top concentration (11 μM for COMPOUND A or 2.7 μM for COMPOUND B), and serially diluted by 3× to yield a 7 point series covering a factor of 729 in concentration. The compounds were then combined at all pairs of the 2nd through the 6th concentrations, and this dose matrix was extended by also combining the top and bottom concentrations with each other. […] In order to identify cytotoxic treatments, we also determined “Day 0” cell populations at the start of drug treatment.
Cell responses at each treatment were measured using simple inhibitions I=1−T/V, where T is the treated well's raw response and V is the median untreated level between replicate wells on the plate. Cytotoxicity measurements were measured using a “Growth Inhibition” GI=1−(T−V0)/[T<V0? […] The “Synergy Score” SLoewe=ΣX,Y lnfX lnfY max(0,Idata) max(0,Idata−ILoewe) was calculated from the differences between the data Idata and the dose-additive surface ILoewe, across all combined concentrations X,Y, and weighted by the measured inhibition and the single agent dilution factors fX, fY. […]

Cc1nc(NC(=O)N2CCC[C@H]2C(N)=O)sc1-c1ccnc(C(C)(C)C(F)(F)F)c1 [COMPOUND A, (S)-pyrrolidine-1,2-dicarboxylic acid 2-amide 1-({4-methyl-5-[2-(2,2,2-trifluoro-1,1-dimethyl-ethyl)-pyridin-4-yl]-thiazol-2-yl}-amide)]
response as a single agent: weak responses
